# From patent publication US6887876B2, “Benzamidine derivatives” (Ortho-McNeil Pharmaceutical, Inc., priority 2000, dated 2005)
# Read-outs that look alike come from different tables or passages of the source.
# Experiments:
# δ-opioid receptor [1] = target: δ-opioid receptor (Rattus norvegicus, UniProt P33533); assay: Rat brain δ-opioid receptor binding assay ([3H]DPDPE)
# μ-opioid receptor = μ-opioid receptor (Rattus norvegicus, UniProt P33535); assay: Rat brain μ-opioid receptor binding assay ([3H]DAMGO)
# [2] = test system: acetylcholine bromide-induced abdominal constriction response; assay: Mouse acetylcholine bromide-induced abdominal constriction assay (MAIT); type: in vivo; conditions: po, 0.5 h, 150 μmole/Kg p.o., acetylcholine bromide 5.5 mg/kg i.p. 30 min later
# Protocol: The mouse acetylcholine-induced abdominal constriction assay, as described by Collier et al. in […]., 32: 295-310, 1968 with minor modifications, was used to assess analgesic potency of the compounds of formula (I). The test drugs or appropriate vehicles were administered orally (p.o.) and 30 min later the animal received an intraperitoneal (i.p.) injection of 5.5 mg/kg acetylcholine bromide (Matheson, Coleman and Bell, East Rutherford, N.J.). The mice were then placed in groups of three into glass bell jars and observed for a ten min observation period for the occurrence of an abdominal constriction response (defined as a wave of constriction and elongation passing caudally along the abdominal wall, accompanied by a twisting of the trunk and followed by extension of the hind limbs). For compounds of the present invention, the percent inhibition of this response to a nociceptive stimulus (equated to % analgesia) was calculated as follows: [formula]
# δ-opioid receptor [3] = target: T1, δ-opioid receptor (Homo sapiens, UniProt P41143); assay: Scintillation screening assay for δ-opioid receptor binding ([3H]bremazocine); conditions: cloned human receptor in CHO cell membranes, [3H]bremazocine 2.4 nM; for inhibition at 25 µM: read-out: δ-Opioid Receptor Binding (% Inhibition), % I @ 25 μM
# T1 construct: purchased Receptor Biology, Baltimore, Md; host or cells: CHO cells (membranes)
# From the text: Scintillation Screening Assay for δ-Opioid Receptor Binding
# This is a receptor based screen to detect the competitive binding of test compounds at the δ-opioid receptor against the radioligand, [^3H]bremazocine (S.A.=25.5 Cl/mmol, Dupont/NEN, Cambridge, Mass.). Unknown compounds that bind to the same receptor as the radioligand will compete for the receptor and reduce the amount of radioligand which binds to the receptor. This is detected as a decreased scintillation signal from that particular incubation. The greater affinity an unknown has for the receptor, the larger the observed decrease in […] to the receptor; thus the assay is in the format of an inhibition study.
# The receptor is a cloned human cDNA expressed in mammalian CHO cells. Membranes prepared from these cells are purchased from Receptor Biology, Baltimore, Md. The reaction buffer is composed as follows: HEPES (50 mM final), MgCl.6H2O (5 mM final), o-phenanthroline (20 mg/l), aprotinin (10 mg/l), Pefabloc SC (250 mg/l), leupeptin (0.5 mg/l), pepstatin A (0.7 mg/l), trypsin inhibitor (25 mg/l), chymostatin (10 mg/l), pH=7.2. Naloxone, 10 uM, is used to define non-specific binding. The assay employs filtration to capture receptor and bound ligand.
# The receptor (membrane) preparation (28 ug protein) is allowed to incubate with the opioid receptor radioligand ([^3H]bremazocine, 2.4 nM) in 96-well plates until equilibrium is reached (>2 hr). Following incubation with the radioligand at 23° C., the well contents are filtered onto 96-well Whatman GF/C filter plates using a Packard cell harvester. Radioligand bound to the receptor also remains on the filter. The filters are rinsed three times with 0.5 mL of physiological saline (0.9% NaCl) to remove any unbound radioligand from the filter. Filters are dried and scintillation fluid is then added to the filters which emits light in proportion to the amount of radioactivity on the filter which is determined using an Packard Topcount scintillation counter. Data are reported as percent inhibition of control binding.
# [4] = rat forebrain preparation, [3H]DPDPE, 25° C., read-out: δ-Opioid Receptor Binding (Ki nM)
# [5] = rat forebrain preparation, [3H]DAMGO, 25° C., read-out: μ-Opioid Receptor Binding (Ki nM)
# Chain of δ-opioid receptor (Rattus norvegicus, UniProt P33533) (P33533 whole entry): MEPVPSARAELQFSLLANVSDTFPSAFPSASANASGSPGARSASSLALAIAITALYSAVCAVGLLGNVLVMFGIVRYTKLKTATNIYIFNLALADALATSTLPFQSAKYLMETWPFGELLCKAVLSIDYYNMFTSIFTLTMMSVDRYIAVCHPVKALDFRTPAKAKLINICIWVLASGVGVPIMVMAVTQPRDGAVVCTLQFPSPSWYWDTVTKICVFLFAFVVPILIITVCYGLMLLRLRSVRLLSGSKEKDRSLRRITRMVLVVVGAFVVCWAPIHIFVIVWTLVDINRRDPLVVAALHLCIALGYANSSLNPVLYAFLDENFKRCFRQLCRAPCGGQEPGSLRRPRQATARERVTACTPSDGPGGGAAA
# T1 sequence (P41143 whole entry): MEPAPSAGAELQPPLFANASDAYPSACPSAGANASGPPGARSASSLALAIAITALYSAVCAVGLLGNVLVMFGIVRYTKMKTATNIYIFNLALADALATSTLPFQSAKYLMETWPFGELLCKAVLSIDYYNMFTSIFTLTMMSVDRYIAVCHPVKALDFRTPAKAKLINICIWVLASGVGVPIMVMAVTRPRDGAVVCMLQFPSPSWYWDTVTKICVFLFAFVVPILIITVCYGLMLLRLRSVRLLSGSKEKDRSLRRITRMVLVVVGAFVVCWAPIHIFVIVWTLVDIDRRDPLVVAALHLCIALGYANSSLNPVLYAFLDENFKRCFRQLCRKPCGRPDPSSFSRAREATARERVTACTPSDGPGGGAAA
# Chain of μ-opioid receptor (P33535 whole entry): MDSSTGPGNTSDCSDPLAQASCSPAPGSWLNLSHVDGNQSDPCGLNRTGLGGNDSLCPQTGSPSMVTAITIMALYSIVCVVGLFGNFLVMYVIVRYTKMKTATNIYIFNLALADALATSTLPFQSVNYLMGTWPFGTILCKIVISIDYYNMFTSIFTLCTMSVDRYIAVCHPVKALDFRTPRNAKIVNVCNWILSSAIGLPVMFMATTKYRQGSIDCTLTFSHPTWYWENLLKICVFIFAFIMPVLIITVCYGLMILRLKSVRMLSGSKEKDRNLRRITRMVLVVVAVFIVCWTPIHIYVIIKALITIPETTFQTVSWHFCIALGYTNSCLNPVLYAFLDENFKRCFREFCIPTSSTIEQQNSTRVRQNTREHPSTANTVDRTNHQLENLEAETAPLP
Molecule,Ki (δ-opioid receptor [1]; [4]),Ki (μ-opioid receptor; [5]),inhibition in vivo at 150 µmol/kg [2],inhibition at 25 µM (δ-opioid receptor [3]),Ki (δ-opioid receptor [1]),Ki (μ-opioid receptor),"δ-Opioid Receptor Binding (% Inhibition), % I @ 25 μM (δ-opioid receptor [3])"
"C=CCN1C[C@H](C)N(/C(=N/c2ccccc2)c2ccc(C(=O)N(CC)CC)cc2)C[C@H]1C [Compound 16, 4-[(E)-[(2S,5R)-2,5-dimethyl-4-(2-propenyl)piperazinyl](phenylimino)methyl]-N,N-diethyl-benzamide]",170 nM,4330 nM,50%,–,–,–,–
CCN1CCN(C(=Nc2cccc(Cl)c2)c2ccc(C(=O)N(CC)CC)cc2)CC1 [Compound 3],–,–,40%,103%,62.6 nM,> 10000 nM,–
"CCCN(CCC)C(=O)c1ccc(C(=Nc2ccccc2F)N2CCN(CC)CC2)cc1 [Compound 11, 4-[(4-ethyl-1-piperazinyl)[(2-fluorophenyl)imino]methyl]-N,N-dipropyl-benzamide]",256 nM,> 10000 nM,–,98%,–,–,–
"CCN1CCN(C(=Nc2ccccc2)c2ccc(C(=O)N(CC)CC)cc2)CC1 [Compound 1, N,N-diethyl-4-[(4-ethyl-1-piperazinyl)(phenylimino)methyl]-benzamide]",–,–,40%,106%,16 nM,> 10000 nM,–
"CCCN(CCC)C(=O)c1ccc(C(=Nc2cc(Cl)cc(Cl)c2)N2CCN(CC)CC2)cc1 [Compound 12, 4-[[(3,5-dichlorophenyl)imino](4-ethyl-1-piperazinyl)methyl]-N,N-dipropyl-benzamide]",674 nM,> 10000 nM,–,98%,–,–,–
"CCN1CCN(C(=Nc2cccc(F)c2)c2ccc(C(=O)N(CC)CC)cc2)CC1 [Compound 9, N,N-diethyl-4-[(4-ethyl-1-piperazinyl)[(3-fluorophenyl)imino]methyl]-benzamide]",–,–,–,97%,58.5 nM,> 10000 nM,–
"CCN1CCN(C(=Nc2cccc(Br)c2)c2ccc(C(=O)N(CC)CC)cc2)CC1 [Compound 4, 4-[[(3-bromophenyl)imino](4-ethyl-1-piperazinyl)methyl]-N,N-diethyl-benzamide]",–,–,7.7%,100%,57.6 nM,> 10000 nM,–
"C=CCN1CCN(C(=Nc2ccccc2Cl)c2ccc(C(=O)N(CC)CC)cc2)CC1 [Compound 19, 4-[[(2-chlorophenyl)imino][4-(2-propenyl)-1-piperazinyl]methyl]-N,N-diethyl-benzamide]",–,–,40%,–,20.5 nM,7600 nM,–
"CCCN1CCN(C(=Nc2ccccc2Cl)c2ccc(C(=O)OC)cc2)CC1 [Compound 34, 4-[[(2-chlorophenyl)imino](4-propyl-1-piperazinyl)methyl]-benzoic acid methyl ester]",–,–,–,90%,87.3 nM,2070 nM,–
"CCN(CC)C(=O)c1ccc(C(=Nc2ccccc2Cl)N2CCN(Cc3ccccc3)CC2)cc1 [Compound 20, 4-[[(2-chlorophenyl)imino][4-(phenylmethyl)-1-piperazinyl]methyl]-N,N-diethyl-benzamide]",–,–,23.1%,–,11.8 nM,> 10000 nM,–
"CCCN(CCC)C(=O)c1ccc(C(=Nc2ccccc2Cl)N2CCN(CC)CC2)cc1 [Compound 7, 4-[[(2-chlorophenyl)imino](4-ethyl-1-piperazinyl)methyl]-N,N-dipropyl-benzamide]",292 nM,3930 nM,–,97%,–,–,–
"CCN1CCN(C(=Nc2cccc(Br)c2)c2ccc(C(=O)OC)cc2)CC1 [Compound 30, 4-[[(3-bromophenyl)imino](4-ethyl-1-piperazinyl)methyl]-benzoic acid methyl ester]",638 nM,> 10000 nM,–,99%,–,–,–
"CCN1CCN(C(=Nc2ccccc2OC)c2ccc(C(=O)OC)cc2)CC1 [Compound 48, 4-[(4-ethyl-1-piperazinyl)[(2-methoxyphenyl)imino]methyl]-benzoic acid methyl ester]",–,–,–,60%,–,–,–
4-[[(2-chlorophenyl)imino](4-ethyl-1-piperazinyl)methyl]-benzoic acid methyl ester [Compound 31],222 nM,> 10000 nM,–,–,–,–,100%
"CCN1CCN(C(=Nc2ccccc2F)c2ccc(C(=O)N(CC)CC)cc2)CC1 [Compound 10, N,N-diethyl-4-[(4-ethyl-1-piperazinyl)[(2-fluorophenyl)imino]methyl]-benzamide]",–,–,26.7%,102%,118 nM,> 10000 nM,–
"CCN1CCN(C(=Nc2cccc(F)c2)c2ccc(C(=O)OC)cc2)CC1 [Compound 32, 4-[(4-ethyl-1-piperazinyl)[(3-fluorophenyl)imino]methyl]-benzoic acid methyl ester]",–,–,–,97%,259 nM,> 10000 nM,–
"CCN1CCN(C(=Nc2ccccc2)c2ccc(C(=O)OC)cc2)CC1 [Compound 46, 4-[(4-ethyl-1-piperazinyl)(phenylimino)methyl]-benzoic acid methyl ester]",–,–,26.7%,94%,–,–,–
"CCCN(CCC)C(=O)c1ccc(C(=Nc2cccc(F)c2)N2CCN(CC)CC2)cc1 [Compound 8, 4-[(4-ethyl-1-piperazinyl)[(3-fluorophenyl)imino]methyl]-N,N-dipropyl-benzamide]",–,–,7.1%,97%,60.7 nM,6890 nM,–
"CCN1CCN(C(=Nc2cccc(OC)c2)c2ccc(C(=O)OC)cc2)CC1 [Compound 47, 4-[(4-ethyl-1-piperazinyl)[(3-methoxyphenyl)imino]methyl]-benzoic acid methyl ester]",–,–,26.7%,91%,–,–,–
"CCN1CCN(C(=Nc2cccc(F)c2)c2ccc(C(=O)OC)cc2)CC1 [Compound 33, 4-[(4-ethyl-1-piperazinyl)[(3-fluorophenyl)imino]methyl]-benzoic acid methyl ester]",–,–,–,–,–,–,100%
"CCCN1CCN(C(=Nc2cccc(Cl)c2)c2ccc(C(=O)N(CC)CC)cc2)CC1 [Compound 14, 4-[[(3-chlorophenyl)imino](4-propyl-1-piperazinyl)methyl]-N,N-diethyl-benzamide]",–,–,–,101%,177 nM,9530 nM,–
"CCN(CC)C(=O)c1ccc(C(=Nc2ccccc2Cl)N2CCN(CCc3cccs3)CC2)cc1 [Compound 21, 4-[[(2-chlorophenyl)imino][4-[2-(2-thienyl)ethyl]-1-piperazinyl]methyl]-N,N-diethyl-benzamide]",–,–,40%,–,95.3 nM,> 10000 nM,–
"CCN1CCN(C(=Nc2cc(Cl)cc(Cl)c2)c2ccc(C(=O)N(CC)CC)cc2)CC1 [Compound 13, 4-[[(3,5-dichlorophenyl)imino](4-ethyl-1-piperazinyl)methyl]-N,N-diethyl-benzamide]",277 nM,> 10000 nM,–,100%,–,–,–
"CCCN(CCC)C(=O)c1ccc(C(=Nc2cccc(Br)c2)N2CCN(CC)CC2)cc1 [Compound 5, 4-[[(3-bromophenyl)imino](4-ethyl-1-piperazinyl)methyl]-N,N-dipropyl-benzamide]",–,–,14.3%,100%,39.2 nM,5510 nM,–
"CCN1CCN(C(=Nc2cccc(Cl)c2)c2ccc(C(=O)OC)cc2)CC1 [Compound 29, 4-[[(3-chlorophenyl)imino](4-ethyl-1-piperazinyl)methyl]-benzoic acid methyl ester]",283 nM,> 10000 nM,–,97%,–,–,–
